Results on two compounds are retold here after ChEMBL document CHEMBL4387741, “Optimization of novel reversible Bruton's tyrosine kinase inhibitors identified using Tethering-fragment-based screens” (Bioorg Med Chem, 2019).

The target in data set [1] is Serine/threonine-protein kinase BRSK1 (Homo sapiens) (UniProt Q8TDC3). As to the kind of experiment: Inhibition of wild-type human partial length BRSK1 (M1 to E754 residues) expressed in bacterial expression system at 1 uM by Kinomescan method relative to control.
The target of data set [2] is cAMP-dependent protein kinase catalytic subunit alpha (Homo sapiens) (UniProt P17612). Briefly: Inhibition of wild-type human partial length PKAC-alpha (G10 to F351 residues) expressed in bacterial expression system at 1 uM by Kinomescan method relative to control.
In data set [3] the target is CDK4/Cyclin D3 (Homo sapiens) (UniProt P11802+P30281). As to the kind of experiment: Inhibition of wild-type human full length CDK4/cyclinD3 (M1 to E303 residues) expressed in mammalian expression system at 1 uM by Kinomescan method relative to control.
The target of data set [4] is cAMP-dependent protein kinase catalytic subunit beta (Homo sapiens) (UniProt P22694). As to the kind of experiment: Inhibition of wild-type human full length PKAC-beta (M1 to F351 residues) expressed in bacterial expression system at 1 uM by Kinomescan method relative to control.
The target in data set [5] is Inhibitor of nuclear factor kappa-B kinase subunit alpha (Homo sapiens) (UniProt O15111). As to the kind of experiment: Inhibition of wild-type human full length IKK-alpha (M1 to E745 residues) expressed in mammalian expression system at 1 uM by Kinomescan method relative to control.
Data set [6] can be described thus: AUC (infinity) in po dosed Sprague-Dawley rat using amorphous solid form of compound. Type of data set: ADME, organism-based. The arrangement: route oral, time infinity. The conditions noted are these: in vivo.
For data set [7], the target named is Mitogen-activated protein kinase 12 (Homo sapiens) (UniProt P53778). Briefly: Inhibition of wild-type human full length p38-gamma (M1 to L367 residues) expressed in mammalian expression system at 1 uM by Kinomescan method relative to control.
Data set [8] is described as follows: Plasma clearance in Sprague-Dawley rat at 1 mg/kg, iv. Type of data set: ADME, organism-based.
Data set [9] concerns the target Tyrosine-protein kinase Tec (Homo sapiens) (UniProt P42680). Briefly: Inhibition of wild-type human partial length TEC (L341 to D620 residues) expressed in bacterial expression system at 1 uM by Kinomescan method relative to control.
In data set [10] the target is Receptor-interacting serine/threonine-protein kinase 2 (Homo sapiens) (UniProt O43353). Briefly: Inhibition of wild-type human partial length RIPK2 (M1 to K310 residues) expressed in bacterial expression system at 1 uM by Kinomescan method relative to control.
Data set [11] addresses Serine/threonine-protein kinase MRCK gamma (Homo sapiens) (UniProt Q6DT37). As to the kind of experiment: Inhibition of wild-type human partial length DMPK2 (S46 to S408 residues) expressed in bacterial expression system at 1 uM by Kinomescan method relative to control.
Data set [12] deals with NT-3 growth factor receptor (Homo sapiens) (UniProt Q16288). Briefly: Inhibition of wild-type human partial length TRKC (Q531 to G825 residues) expressed in mammalian expression system at 1 uM by Kinomescan method relative to control.
For data set [13], the target named is 3-phosphoinositide-dependent protein kinase 1 (Homo sapiens) (UniProt O15530). Briefly: Inhibition of wild-type human full length PDPK1 (M1 to Q556 residues) expressed in bacterial expression system at 1 uM by Kinomescan method relative to control.
The target of data set [14] is Casein kinase I isoform alpha (Homo sapiens) (UniProt P48729). As to the kind of experiment: Inhibition of wild-type human partial length CSNK1A1 (M1 to L450 residues) expressed in mammalian expression system at 1 uM by Kinomescan method relative to control.
For data set [15], the target named is Mitogen-activated protein kinase kinase kinase 9 (Homo sapiens) (UniProt P80192). As to the kind of experiment: Inhibition of wild-type human partial length MLK1 (V88 to W426 residues) expressed in bacterial expression system at 10 uM by Kinomescan method relative to control.
Data set [16] concerns the target Serine/threonine-protein kinase ULK1 (Homo sapiens) (UniProt O75385). Briefly: Inhibition of wild-type human partial length ULK1 (M1 to T309 residues) expressed in mammalian expression system at 10 uM by Kinomescan method relative to control.
For data set [17], the target named is NT-3 growth factor receptor (Homo sapiens) (UniProt Q16288). Briefly: Inhibition of wild-type human partial length TRKC (Q531 to G825 residues) expressed in mammalian expression system at 10 uM by Kinomescan method relative to control.
The target of data set [18] is Serine/threonine-protein kinase SIK3 (Homo sapiens) (UniProt Q9Y2K2). As to the kind of experiment: Inhibition of wild-type human partial length QSK (A90 to L395 residues) expressed in mammalian expression system at 10 uM by Kinomescan method relative to control.
Data set [19] concerns the target Wee1-like protein kinase (Homo sapiens) (UniProt P30291). As to the kind of experiment: Inhibition of wild-type human partial length WEE1 (M291 to K575 residues) expressed in bacterial expression system at 10 uM by Kinomescan method relative to control.
In data set [20] the target is Tyrosine-protein kinase Yes (Homo sapiens) (UniProt P07947). As to the kind of experiment: Inhibition of wild-type human partial length YES (T257 to L543 residues) expressed in bacterial expression system at 10 uM by Kinomescan method relative to control.
The target of data set [21] is Casein kinase I isoform epsilon (Homo sapiens) (UniProt P49674). Briefly: Inhibition of wild-type human full length CSNK1E (M1 to K416 residues) expressed in bacterial expression system at 10 uM by Kinomescan method relative to control.
Data set [22] relates to Phosphatidylinositol 4,5-bisphosphate 3-kinase catalytic subunit alpha isoform (Homo sapiens), P42336 [Q546K]. Briefly: Inhibition of human partial length PIK3CA Q546K mutant (R108 to N1068 residues) expressed in mammalian expression system at 10 uM by Kinomescan method relative to control.
The target of data set [23] is Mitogen-activated protein kinase 10 (Homo sapiens) (UniProt P53779). As to the kind of experiment: Inhibition of wild-type human partial length JNK3 (V28 to Q422 residues) expressed in mammalian expression system at 10 uM by Kinomescan method relative to control.
Data set [24] has as its target Peripheral plasma membrane protein CASK (Homo sapiens) (UniProt O14936). As to the kind of experiment: Inhibition of wild-type human partial length CASK (M1 to H315 residues) expressed in mammalian expression system at 10 uM by Kinomescan method relative to control.
Data set [25] deals with Receptor tyrosine-protein kinase erbB-3 (Homo sapiens) (UniProt P21860). Briefly: Inhibition of wild-type human partial length ERBB3 (G684 to A987 residues) expressed in mammalian expression system at 10 uM by Kinomescan method relative to control.
The target of data set [26] is Tyrosine-protein kinase JAK3 (Homo sapiens) (UniProt P52333). As to the kind of experiment: Inhibition of wild-type human partial length JAK3 JH1 catalytic domain (I781 to S1124 residues) expressed in mammalian expression system at 10 uM by Kinomescan method relative to control.
The target in data set [27] is Calcium/calmodulin-dependent protein kinase type II subunit alpha (Homo sapiens) (UniProt Q9UQM7). Briefly: Inhibition of wild-type human partial length CAMK2A (M1 to K328 residues) expressed in bacterial expression system at 10 uM by Kinomescan method relative to control.
For data set [28], the target named is Tyrosine-protein kinase receptor Tie-1 (Homo sapiens) (UniProt P35590). As to the kind of experiment: Inhibition of wild-type human partial length TIE1 (T819 to A1138 residues) expressed in bacterial expression system at 10 uM by Kinomescan method relative to control.
Tyrosine-protein kinase receptor Tie-1 (Homo sapiens), sequence (P35590 whole entry, the tested form may be a part): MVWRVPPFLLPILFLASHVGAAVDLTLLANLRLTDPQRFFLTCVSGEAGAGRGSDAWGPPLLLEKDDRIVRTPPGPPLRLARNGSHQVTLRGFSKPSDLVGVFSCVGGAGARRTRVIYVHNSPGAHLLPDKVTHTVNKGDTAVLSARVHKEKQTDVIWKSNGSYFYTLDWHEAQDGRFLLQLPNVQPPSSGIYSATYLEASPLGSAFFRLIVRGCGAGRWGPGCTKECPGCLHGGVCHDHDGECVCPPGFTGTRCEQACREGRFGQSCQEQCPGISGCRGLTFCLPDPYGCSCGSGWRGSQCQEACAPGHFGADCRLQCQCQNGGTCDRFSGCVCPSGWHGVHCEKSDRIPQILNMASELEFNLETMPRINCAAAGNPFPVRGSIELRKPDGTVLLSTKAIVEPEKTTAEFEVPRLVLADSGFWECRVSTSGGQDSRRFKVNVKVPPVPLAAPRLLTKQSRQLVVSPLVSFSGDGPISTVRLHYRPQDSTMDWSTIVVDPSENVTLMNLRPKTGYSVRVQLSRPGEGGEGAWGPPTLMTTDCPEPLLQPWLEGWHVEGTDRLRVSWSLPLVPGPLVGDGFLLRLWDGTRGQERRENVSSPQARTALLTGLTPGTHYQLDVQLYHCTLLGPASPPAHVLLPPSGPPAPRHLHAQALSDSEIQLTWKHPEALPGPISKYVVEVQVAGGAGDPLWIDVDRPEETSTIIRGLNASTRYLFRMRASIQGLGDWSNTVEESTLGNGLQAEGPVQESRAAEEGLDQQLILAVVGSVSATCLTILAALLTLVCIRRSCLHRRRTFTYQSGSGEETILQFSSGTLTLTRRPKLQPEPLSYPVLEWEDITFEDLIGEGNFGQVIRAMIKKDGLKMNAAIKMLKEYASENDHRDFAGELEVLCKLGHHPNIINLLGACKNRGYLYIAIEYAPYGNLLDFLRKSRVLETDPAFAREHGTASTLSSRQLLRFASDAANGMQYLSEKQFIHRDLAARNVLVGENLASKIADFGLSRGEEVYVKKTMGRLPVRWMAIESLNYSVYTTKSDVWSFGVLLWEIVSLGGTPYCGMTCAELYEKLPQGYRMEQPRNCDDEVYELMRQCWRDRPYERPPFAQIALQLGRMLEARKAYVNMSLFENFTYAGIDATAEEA

NT-3 growth factor receptor (Homo sapiens), sequence (Q16288 32-839 limits assumed): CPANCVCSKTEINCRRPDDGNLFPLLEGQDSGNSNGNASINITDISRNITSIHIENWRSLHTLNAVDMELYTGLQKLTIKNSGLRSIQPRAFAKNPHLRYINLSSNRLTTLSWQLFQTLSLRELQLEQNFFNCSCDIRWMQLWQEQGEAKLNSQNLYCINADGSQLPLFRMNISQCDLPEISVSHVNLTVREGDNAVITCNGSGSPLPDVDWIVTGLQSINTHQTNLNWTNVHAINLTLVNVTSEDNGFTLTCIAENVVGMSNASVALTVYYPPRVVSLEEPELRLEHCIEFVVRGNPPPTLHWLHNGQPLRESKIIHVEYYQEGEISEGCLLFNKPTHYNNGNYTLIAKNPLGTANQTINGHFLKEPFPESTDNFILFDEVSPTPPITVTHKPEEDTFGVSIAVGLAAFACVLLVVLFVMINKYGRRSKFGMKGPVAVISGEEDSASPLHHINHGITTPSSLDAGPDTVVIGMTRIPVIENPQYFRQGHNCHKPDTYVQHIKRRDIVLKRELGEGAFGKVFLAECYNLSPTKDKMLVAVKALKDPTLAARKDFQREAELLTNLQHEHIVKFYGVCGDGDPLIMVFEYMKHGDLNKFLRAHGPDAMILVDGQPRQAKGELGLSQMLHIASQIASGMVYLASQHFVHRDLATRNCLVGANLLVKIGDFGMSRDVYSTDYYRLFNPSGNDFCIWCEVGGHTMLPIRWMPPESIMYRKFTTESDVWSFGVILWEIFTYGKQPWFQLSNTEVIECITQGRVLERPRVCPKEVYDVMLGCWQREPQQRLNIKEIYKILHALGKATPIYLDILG
Receptor-interacting serine/threonine-protein kinase 2 (Homo sapiens), sequence (O43353 whole entry, the tested form may be a part): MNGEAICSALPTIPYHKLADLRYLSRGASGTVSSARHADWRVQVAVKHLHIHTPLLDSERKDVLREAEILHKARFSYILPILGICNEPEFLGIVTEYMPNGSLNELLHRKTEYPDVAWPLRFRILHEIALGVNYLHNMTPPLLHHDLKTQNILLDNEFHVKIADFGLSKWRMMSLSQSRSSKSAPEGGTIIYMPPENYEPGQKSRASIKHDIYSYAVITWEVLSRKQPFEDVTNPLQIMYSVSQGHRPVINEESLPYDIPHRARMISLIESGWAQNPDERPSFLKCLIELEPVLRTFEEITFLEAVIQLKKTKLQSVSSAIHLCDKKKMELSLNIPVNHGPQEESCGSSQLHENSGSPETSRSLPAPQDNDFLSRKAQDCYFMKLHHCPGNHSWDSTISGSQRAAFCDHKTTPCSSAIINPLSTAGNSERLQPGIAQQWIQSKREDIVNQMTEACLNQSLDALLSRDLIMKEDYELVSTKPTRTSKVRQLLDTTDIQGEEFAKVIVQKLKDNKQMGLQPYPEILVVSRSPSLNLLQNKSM
Serine/threonine-protein kinase MRCK gamma (Homo sapiens), sequence (Q6DT37 whole entry, the tested form may be a part): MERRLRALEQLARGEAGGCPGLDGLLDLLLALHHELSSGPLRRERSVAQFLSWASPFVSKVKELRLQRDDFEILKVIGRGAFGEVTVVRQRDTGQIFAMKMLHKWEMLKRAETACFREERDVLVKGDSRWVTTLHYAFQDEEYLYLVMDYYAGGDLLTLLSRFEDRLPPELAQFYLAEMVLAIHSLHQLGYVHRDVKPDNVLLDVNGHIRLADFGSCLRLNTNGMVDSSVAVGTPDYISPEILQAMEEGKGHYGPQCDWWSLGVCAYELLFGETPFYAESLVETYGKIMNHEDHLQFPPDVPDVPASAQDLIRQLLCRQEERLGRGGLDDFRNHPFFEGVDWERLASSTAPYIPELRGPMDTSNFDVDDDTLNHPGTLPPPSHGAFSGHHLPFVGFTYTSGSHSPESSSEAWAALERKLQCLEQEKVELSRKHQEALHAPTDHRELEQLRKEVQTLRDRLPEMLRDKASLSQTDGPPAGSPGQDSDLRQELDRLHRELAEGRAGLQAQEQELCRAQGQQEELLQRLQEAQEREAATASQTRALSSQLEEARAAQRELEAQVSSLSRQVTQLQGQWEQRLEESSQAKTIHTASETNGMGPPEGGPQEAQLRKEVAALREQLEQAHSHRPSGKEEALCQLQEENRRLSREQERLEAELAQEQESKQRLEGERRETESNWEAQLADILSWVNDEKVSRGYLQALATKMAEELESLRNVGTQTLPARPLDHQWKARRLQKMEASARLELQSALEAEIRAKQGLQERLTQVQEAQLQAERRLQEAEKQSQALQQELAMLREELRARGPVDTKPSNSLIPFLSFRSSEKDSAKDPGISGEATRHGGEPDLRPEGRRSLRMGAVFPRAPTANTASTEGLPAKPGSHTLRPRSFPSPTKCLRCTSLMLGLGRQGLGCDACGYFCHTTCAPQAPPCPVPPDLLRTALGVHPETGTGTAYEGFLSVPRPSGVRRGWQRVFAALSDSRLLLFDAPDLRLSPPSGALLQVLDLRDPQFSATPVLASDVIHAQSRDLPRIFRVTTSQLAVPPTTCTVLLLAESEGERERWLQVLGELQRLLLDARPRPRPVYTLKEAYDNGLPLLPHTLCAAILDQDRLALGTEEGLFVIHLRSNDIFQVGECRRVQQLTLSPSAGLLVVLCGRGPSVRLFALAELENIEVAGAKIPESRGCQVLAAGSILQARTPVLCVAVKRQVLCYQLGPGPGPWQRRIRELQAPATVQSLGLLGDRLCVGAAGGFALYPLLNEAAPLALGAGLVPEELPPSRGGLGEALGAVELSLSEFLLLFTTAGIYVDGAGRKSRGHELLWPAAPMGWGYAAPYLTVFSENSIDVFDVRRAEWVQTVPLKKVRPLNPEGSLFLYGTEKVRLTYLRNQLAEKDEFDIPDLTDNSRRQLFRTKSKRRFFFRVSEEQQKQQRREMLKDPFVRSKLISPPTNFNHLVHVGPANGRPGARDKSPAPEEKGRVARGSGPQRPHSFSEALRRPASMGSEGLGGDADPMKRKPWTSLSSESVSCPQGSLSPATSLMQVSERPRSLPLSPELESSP
Mitogen-activated protein kinase 10 (Homo sapiens), sequence (P53779 whole entry, the tested form may be a part): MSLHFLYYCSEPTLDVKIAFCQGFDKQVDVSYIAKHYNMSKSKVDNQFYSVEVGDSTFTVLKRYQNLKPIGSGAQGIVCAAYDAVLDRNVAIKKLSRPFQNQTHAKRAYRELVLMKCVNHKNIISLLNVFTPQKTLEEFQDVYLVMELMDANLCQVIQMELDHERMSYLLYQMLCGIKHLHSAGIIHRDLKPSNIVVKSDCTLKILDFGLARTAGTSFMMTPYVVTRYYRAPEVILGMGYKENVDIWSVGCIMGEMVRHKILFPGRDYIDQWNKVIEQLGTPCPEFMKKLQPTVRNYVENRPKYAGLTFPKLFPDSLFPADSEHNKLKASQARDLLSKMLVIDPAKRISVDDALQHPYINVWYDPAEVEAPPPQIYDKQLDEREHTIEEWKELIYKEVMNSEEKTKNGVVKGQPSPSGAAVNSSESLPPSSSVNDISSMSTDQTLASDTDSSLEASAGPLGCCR
Casein kinase I isoform alpha (Homo sapiens), sequence (P48729 2-337 limits assumed): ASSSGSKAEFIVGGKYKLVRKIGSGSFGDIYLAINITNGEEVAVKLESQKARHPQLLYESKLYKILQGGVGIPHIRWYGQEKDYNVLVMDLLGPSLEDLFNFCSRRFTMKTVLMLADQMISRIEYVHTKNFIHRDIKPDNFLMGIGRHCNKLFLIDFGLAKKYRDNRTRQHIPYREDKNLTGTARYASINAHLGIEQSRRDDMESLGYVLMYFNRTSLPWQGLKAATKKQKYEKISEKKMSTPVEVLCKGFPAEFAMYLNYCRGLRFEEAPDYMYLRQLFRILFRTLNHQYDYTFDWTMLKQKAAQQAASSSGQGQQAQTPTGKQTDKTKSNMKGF

As for `O=C(Nc1cccc([C@@H]2CN(c3ncnc4[nH]ccc34)CCN2CCO)c1)Nc1c(F)cccc1N1CCCC1`, the inhibition (commonly the share of the control response that was lost under treatment) was found to be 100% in [1]; 76% in data set [2]; 100% in data set [3]; 99% in data set [4]; 78% in [5]; 81% in data set [7]. Besides, the inhibition is 45% in data set [9]; 100% in data set [10]; 100% in data set [11]; 99% in data set [12]; 34% in data set [13]; 81% in data set [14]. Also, the AUC(0-inf) (commonly total exposure, with the tail of the curve extrapolated) in data set [6] is 1890 ng·h/mL. Also, in data set [8], the clearance (as a rule, a measure of how efficiently the substance is removed, as volume per time) worked out at 6.2 mL/min/kg.
`O=C(Nc1cccc([C@H]2CCCN(c3ncnc4[nH]ccc34)C2)c1)Nc1ccccc1N1CCCC1`: the inhibition in data set [15] worked out at 59%; in data set [16] it was 37%; in data set [17] it was 36%; in data set [18], 88%; in data set [19] it was 100%; in data set [20] it was 62%. Also, the inhibition in data set [21] is 90%; in data set [22] it was 81%; in data set [23] it was 64%; in data set [24], 85%; in data set [25], 72%; in data set [26], 0.35%. For the same compound, the inhibition in [27] was 77%; in data set [28], 45%.
